PubChem BioAssay (NCI)
Values joined by “and” are separate entries in the source; they are usually repeats but may differ in a detail not shown here. Equal values may be shown once.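 Five compound concentrations were applied to cells in 96-well plates for 48 hours; endpoints were derived by simple linear interpolation of the resulting dose-response curve. GI50: concentration for 50% inhibition of growth. TGI denotes the concentration required for complete inhibition of growth.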

Assays:
Experiment in all cases: NCI anticancer screen, dose series, 48 h
SK-MEL-2 melanoma = tested on: SK-MEL-2 melanoma
RPMI-8226 leukemia = tested on: RPMI-8226 leukemia
COLO 205 colon = tested on: COLO 205 colon
OVCAR-5 ovarian = tested on: OVCAR-5 ovarian
MCF7 breast = tested on: MCF7 breast
LOX IMVI melanoma = tested on: LOX IMVI melanoma
IGROV1 ovarian = tested on: IGROV1 ovarian
HCT-116 colon = tested on: HCT-116 colon
T-47D breast = tested on: T-47D breast
NCI-H226 lung = tested on: NCI-H226 lung

Row | SMILES | GI50 (SK-MEL-2 melanoma) | TGI (SK-MEL-2 melanoma) | GI50 (RPMI-8226 leukemia) | TGI (RPMI-8226 leukemia) | GI50 (COLO 205 colon) | TGI (COLO 205 colon) | GI50 (OVCAR-5 ovarian) | TGI (OVCAR-5 ovarian) | GI50 (MCF7 breast) | TGI (MCF7 breast) | GI50 (LOX IMVI melanoma) | TGI (LOX IMVI melanoma) | GI50 (IGROV1 ovarian) | TGI (IGROV1 ovarian) | GI50 (HCT-116 colon) | TGI (HCT-116 colon) | GI50 (T-47D breast) | TGI (T-47D breast) | GI50 (NCI-H226 lung) | TGI (NCI-H226 lung)
1 | Cc1ccc(C(=O)N/N=C/c2cccc(Oc3ccccc3)c2)cn1 | > 24.6 µM | > 100 µM | 2.66 µM | 8.58 µM | 5.66 µM | 38.1 µM | > 100 µM | > 100 µM | 3.48 µM | > 100 µM | 8.54 µM | > 100 µM | 19 µM | > 100 µM | 4.69 µM | > 100 µM | 6.3 µM | > 74.3 µM | > 64.5 µM | > 100 µM
2 | Cc1c(CN2CCC(Nc3ncnc4sc(CC(F)(F)F)cc34)CC2)ccc2c1cc(C#N)n2Cc1cn[nH]c1 | 8.97 µM and 9.33 µM | 26.3 µM and 26.5 µM | 0.832 µM and 0.896 µM | 4.47 µM | 1.64 µM and 2.05 µM | 3.7 µM and 9.53 µM | 13.2 µM and > 33.4 µM | 34.9 µM and > 51 µM | 1.59 µM and 2.01 µM | 3.75 µM and 8.6 µM | 1.35 µM and 2.36 µM | 2.88 µM and 7.5 µM | 5.23 µM and 23.8 µM | 26.1 µM and > 100 µM | 1.12 µM and 1.99 µM | 2.4 µM | 0.897 µM and 1.06 µM | 16.9 µM | 7.58 µM and 4.31 µM | 40.2 µM and 36.9 µM
3 | CN(C)CC#Cc1cccc(C(=O)c2cnn(-c3ccc(F)cc3)c2N)c1 | > 25 µM | > 25 µM | > 25 µM | > 25 µM | > 25 µM | > 25 µM | > 25 µM | > 25 µM | > 25 µM | > 25 µM | > 25 µM | > 25 µM | > 21.1 µM | > 25 µM | > 25 µM | > 25 µM | 11.3 µM | > 25 µM | > 21.9 µM | > 25 µM
4 | Cc1cc(S(=O)(=O)NC#N)c(S/C(=N\Nc2ccc([N+](=O)[O-])cc2)c2ccccc2)cc1Cl | 13.8 µM | 34 µM | 19.5 µM | 61.8 µM | 44.7 µM | > 100 µM | 15.7 µM | 32.4 µM | 14.7 µM | 28.3 µM | 15.4 µM | 28.8 µM | 17.9 µM | 39.3 µM | 13.8 µM | 30.6 µM | > 100 µM | > 100 µM | 16.3 µM | 33.1 µM
5 | Cn1c(=O)c2[nH]c(COCc3nc4c([nH]3)c(=O)n(C)c(=O)n4C)nc2n(C)c1=O |  | > 100 µM |  | > 100 µM |  | > 100 µM |  | > 100 µM |  | > 100 µM |  | > 100 µM |  | > 100 µM |  | > 100 µM |  | > 100 µM |  | > 100 µM
6 | O=C(Nc1ccncc1)C(=O)c1cn(S(=O)(=O)c2ccccc2F)c2ccccc12 | 5.2 µM | > 57.8 µM | 2.54 µM | > 32.7 µM | 23.6 µM | > 100 µM | 5.38 µM | 98.2 µM | 0.547 µM | 27.5 µM |  | > 100 µM | 3.83 µM | > 100 µM | 0.504 µM | > 37.8 µM | 2.53 µM | > 87.1 µM | 6.93 µM | > 68.6 µM
7 | CCN(CC)CCCC(C)Nc1cnc(C(=O)Nc2cc(F)cc3cccnc23)cn1 (centres undefined) | 3.78 µM and 2.55 µM | 10.8 µM and 6.39 µM | 2.97 µM and 0.502 µM | 12.2 µM and > 20.5 µM | 1.16 µM and 0.461 µM | 3.57 µM and 2.16 µM | 11 µM and 1.41 µM | 23.1 µM and 2.91 µM | 2.1 µM | 6.91 µM | 3.32 µM and 0.882 µM | 11.3 µM and 2.28 µM | 3.03 µM and 0.379 µM | 12 µM and 1.4 µM | 2.7 µM and 0.35 µM | 10.1 µM and 1.23 µM | 0.759 µM and 0.505 µM | 20.2 µM and 5.18 µM | 4.71 µM and 1.99 µM | 18.5 µM and 4.13 µM
8 | c1cncc(CNc2ccccc2-c2nnc(Nc3ccc4c(c3)OCCO4)o2)c1 | 0.217 µM | > 100 µM | 0.28 µM | 17.7 µM | 0.146 µM | 0.817 µM | 0.658 µM | > 100 µM | 0.291 µM | > 100 µM | 0.183 µM | > 100 µM | 0.5 µM | > 100 µM | 0.071 µM | > 100 µM | 3.57 µM | 60.2 µM | 0.153 µM | 0.81 µM
